Assay results published in patent US7491794B2, “Macrocyclic compounds as inhibitors of viral replication” (Intermune, Inc., priority 2003, dated 2009).
Like-named read-outs stand apart in the source and are kept apart here.

Key:
NS3-NS4 protease = molecular target: T1, NS3-NS4 protease (Hepatitis C virus genotype 1a, UniProt P27958); test: NS3-NS4 protease assay / NS3 inhibition assay, Section C; format: biochemical
T1 construct: Recombinant E. coli or Baculovirus full-length NS3 was diluted to 3.33 μM with assay buffer; made in house; host or cells: E. coli or baculovirus (BV) system
T1 sequence (P27958 1027-1657): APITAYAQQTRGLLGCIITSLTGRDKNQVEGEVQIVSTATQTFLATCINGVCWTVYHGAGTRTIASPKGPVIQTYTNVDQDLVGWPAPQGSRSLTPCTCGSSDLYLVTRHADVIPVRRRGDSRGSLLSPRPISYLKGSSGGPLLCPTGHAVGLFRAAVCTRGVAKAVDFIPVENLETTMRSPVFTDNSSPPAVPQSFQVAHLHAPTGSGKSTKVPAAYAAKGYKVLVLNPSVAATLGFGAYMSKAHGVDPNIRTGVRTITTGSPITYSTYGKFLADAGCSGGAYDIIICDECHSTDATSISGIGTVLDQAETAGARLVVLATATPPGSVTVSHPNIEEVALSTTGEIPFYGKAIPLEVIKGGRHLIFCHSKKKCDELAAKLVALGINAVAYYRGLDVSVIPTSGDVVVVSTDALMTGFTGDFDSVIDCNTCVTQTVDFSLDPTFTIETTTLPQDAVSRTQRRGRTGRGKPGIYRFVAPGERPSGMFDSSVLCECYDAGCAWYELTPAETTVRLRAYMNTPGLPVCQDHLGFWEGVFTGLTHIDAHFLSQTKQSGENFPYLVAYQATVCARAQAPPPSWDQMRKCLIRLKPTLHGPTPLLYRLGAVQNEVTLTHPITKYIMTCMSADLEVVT
Outline: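 Full-length NS3 (E. coli, 2 nM, or Baculovirus, 3 nM, in assay) precomplexed with excess NS4A-2 peptide, pre-incubated with compound 10 minutes at room temperature, then RETS1 substrate added. Fluorescence (ex 335/em 495 nm) read kinetically over 30 minutes; IC50s from four-parameter fit converted to Ki via Ki=IC50/(1+[S]/Km).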

[1] = test system: HCV sub-genomic replicon, GS4.3; test: Quantitation by ELISA of NPTII in the HCV sub-genomic replicon, GS4.3, Section C; format: cell-based; settings: Hepatitis C virus
From the text: Quantitation by ELISA of the selectable marker protein, Neomycin phosphotransferase II (NPTII) in the HCV Sub-Genomic Replicon, GS4.3
The HCV sub-genomic replicon (1377/NS3-3′, accession No. AJ242652), stably maintained in HuH-7 hepatoma cells, was created by Lohmann et al. Science 285: 110-113 (1999). The replicon-containing cell culture, designated GS4.3, was obtained from Dr. Christoph Seeger of the Institute for Cancer Research, Fox Chase Cancer Center, Philadelphia, Pa.
GS4.3 cells were maintained at 37° C., 5% CO2, in DMEM (Gibco 11965-092) supplemented with L-glutamine 200 mM (100×) (Gibco25030-081), non-essential amino acids (NEAA)(Biowhittaker 13-114E), heat-inactivated (HI) Fetal Bovine Serum(FBS)(Hyclone SH3007.03) and 750 μg/ml geneticin (G418)(Gibco 10131-035). Cells were sub-divided 1:3 or 4 every 2-3 days.
24 h prior to the assay, GS4.3 cells were collected, counted, and plated in 96-well plates (Costar 3585) at 7500 cells/well in 100 μl standard maintenance medium (above) and incubated in the conditions above. To initiate the assay, culture medium was removed, cells were washed once with PBS (Gibco 10010-023) and 90 μl Assay Medium (DMEM, L-glutamine, NEAA, 10% HI FBS, no G418) was added. Inhibitors were made as a 10× stock in Assay Medium, (3-fold dilutions from 10 μM to […] final concentration, final DMSO concentration 1%), 10 μl were added to duplicate wells, plates were rocked to mix, and incubated as above for 72 h.
An NPTII Elisa kit was obtained from AGDIA, Inc. (Compound direct ELISA test system for Neomycin Phosphotransferase II, PSP 73000/4800). Manufacturer's instructions were followed, with some modifications. 10×PEB-1 lysis buffer was made up to include 500 μM PMSF (Sigma P7626, 50 mM stock in isopropanol). After 72 h incubation, cells were washed once with PBS and 150 μl PEB-1 with PMSF was added per well. Plates were agitated vigorously for 15 minutes, room temperature, then frozen at −70° C. Plates were thawed, lysates were mixed thoroughly, and 100 μl were applied to an NPTII Elisa plate. A standard curve was made. Lysate from DMSO-treated control cells was pooled, serially diluted with PEB-1 with PMSF, and applied to duplicate wells of the ELISA plate, in a range of initial lysate amount of 150u1-2.5 ul. In addition, 100 μl buffer alone was applied in duplicate as a blank. Plates were sealed and gently agitated at room temperature for 2 h. Following capture incubation, the plates were washed 5×300 μl with PBS-T (0.5% Tween-20, PBS-T was supplied in the ELISA kit). For detection, a 1× dilution of enzyme conjugate diluent MRS-2 (5×) was made in PBS-T, into which 1:100 dilutions of enzyme conjugates A and B were added, as per instructions. Plates were resealed, and incubated with agitation, covered, room temperature, for 2 h. The washing was then repeated and 100 μl of room temperature TMB substrate was added. After approximately 30 minutes incubation (room temperature, agitation, covered), the reaction was stopped with 50 μl 3M sulfuric acid. Plates were read at 450 nm on a Molecular Devices Versamax plate reader.
Inhibitor effect was expressed as a percentage of DMSO-treated control signal, and inhibition curves were calculated using a 4-parameter equation: y=A+((B−A)/(1+((C/x)^D))), where C is half-maximal activity or EC50.

[2] = GS4.3 cells, 72 h incubation, read-out: EC50

| SMILES | IC50 (NS3-NS4 protease; read-out: NS3-NS4 IC50) [nM] | EC50 [1, 2] [nM] | IC50 (NS3-NS4 protease) [nM] | EC50 ([1]; 72 h) [nM] |
| --- | --- | --- | --- | --- |
| CC(C)(C)OC(=O)N[C@H]1CCCCC/C=C\[C@@H]2C[C@@]2(C(=O)NS(=O)(=O)NC2CCCCC2)NC(=O)[C@@H]2C[C@@H](OC(=O)N3Cc4ccccc4C3)CN2C1=O [Compound 135, (1S,4R,6S,14S,18R)-1,3-Dihydro-isoindole-2-carboxylic acid 14-tert-butoxycarbonylamino-4-(cyclohexylaminosulfonyl-aminocarbonyl)-2,15-dioxo-3,16-diaza-tricyclo[14.3.0.0^4,6]nonadec-7-en-18-yl ester] | < 100 | < 100 | – | – |
| CC(C)(C)OC(=O)N[C@H]1CCCCC/C=C\[C@@H]2C[C@@]2(C(=O)NS(=O)(=O)N2CCC2)NC(=O)[C@@H]2C[C@@H](OC(=O)N3Cc4ccccc4C3)CN2C1=O [Compound 117, (1S,4R,6S,14S,18R)-1,3-Dihydro-isoindole-2-carboxylic acid 14-tert-butoxycarbonylamino-4-(azetidino-sulfonyl-aminocarbonyl)-2,15-dioxo-3,16-diaza-tricyclo[14.3.0.0^4,6]nonadec-7-en-18-yl ester] | < 100 | < 100 | – | – |
| CN(C)S(=O)(=O)NC(=O)[C@@]12C[C@H]1/C=C\CCCCC[C@H](NC(=O)OC(C)(C)C)C(=O)N1C[C@H](OC(=O)N3CCc4ccccc4C3CN3CCCCC3)C[C@H]1C(=O)N2 (stereo partly drawn) [Compound 107, (1S,4R,6S,14S,18R)-1-Piperidin-1-ylmethyl-3,4-dihydro-1H-isoquinoline-2-carboxylic acid 14-tert-butoxycarbonylamino-2,15-dioxo-4-(N,N-dimethyl-sulfonylaminocarbonyl)-3,16-diaza-tricyclo[14.3.0.0^4,6]nonadec-7-en-18-yl ester] | < 100 | < 100 | – | – |
| COc1ccc(NS(=O)(=O)NC(=O)[C@@]23C[C@H]2/C=C\CCCCC[C@H](NC(=O)OC(C)(C)C)C(=O)N2C[C@H](OC(=O)N4Cc5ccccc5C4)C[C@H]2C(=O)N3)cc1 [Compound 129, (1S,4R,6S,14S,18R)-1,3-Dihydro-isoindole-2-carboxylic acid 14-tert-butoxycarbonylamino-4-(4-methoxyphenylaminosulfonyl-aminocarbonyl)-2,15-dioxo-3,16-diaza-tricyclo[14.3.0.0^4,6]nonadec-7-en-18-yl ester] | < 100 | < 100 | – | – |
| CC(C)(C)OC(=O)N[C@H]1CCCCC/C=C\[C@@H]2C[C@@]2(C(=O)NS(=O)(=O)NC2CCC2)NC(=O)[C@@H]2C[C@@H](OC(=O)N3Cc4ccccc4C3)CN2C1=O [Compound 133, (1S,4R,6S,14S,18R)-1,3-Dihydro-isoindole-2-carboxylic acid 14-tert-butoxycarbonylamino-4-(cyclobutylaminosulfonyl-aminocarbonyl)-2,15-dioxo-3,16-diaza-tricyclo[14.3.0.0^4,6]nonadec-7-en-18-yl ester] | < 100 | < 100 | – | – |
| CC(C)(C)OC(=O)N[C@H]1CCCCC/C=C\[C@@H]2C[C@@]2(C(=O)NS(=O)(=O)NC2CC2)NC(=O)[C@@H]2C[C@@H](OC(=O)N3CCc4ccccc4C3CN3CCCCC3)CN2C1=O (some centres unmarked) [Compound 108] | < 1000 | < 100 | – | – |
| CC(C)N(C(C)C)S(=O)(=O)NC(=O)[C@@]12C[C@H]1/C=C\CCCCC[C@H](NC(=O)OC(C)(C)C)C(=O)N1C[C@H](OC(=O)N3Cc4ccccc4C3)C[C@H]1C(=O)N2 [Compound 126, (1S,4R,6S,14S,18R)-1,3-Dihydro-isoindole-2-carboxylic acid 14-tert-butoxycarbonylamino-4-(N,N-diisopropylaminosulfonyl-aminocarbonyl)-2,15-dioxo-3,16-diaza-tricyclo[14.3.0.0^4,6]nonadec-7-en-18-yl ester] | < 100 | < 100 | – | – |
| CN1CCC(N(C2CC2)S(=O)(=O)NC(=O)[C@@]23C[C@H]2/C=C\CCCCC[C@H](NC(=O)OC(C)(C)C)C(=O)N2C[C@H](OC(=O)N4Cc5ccccc5C4)C[C@H]2C(=O)N3)CC1 [Compound 124, (1S,4R,6S,14S,18R)-1,3-Dihydro-isoindole-2-carboxylic acid 14-tert-butoxycarbonylamino-4-(cyclopropyl(1-methylpiperidin-4-yl)aminosulfonyl-aminocarbonyl)-2,15-dioxo-3,16-diaza-tricyclo[14.3.0.0^4,6]nonadec-7-en-18-yl ester] | < 1000 | < 100 | – | – |
| Cc1ccc(NS(=O)(=O)NC(=O)[C@@]23C[C@H]2/C=C\CCCCC[C@H](NC(=O)OC(C)(C)C)C(=O)N2C[C@H](OC(=O)N4Cc5ccccc5C4)C[C@H]2C(=O)N3)cc1 [Compound 130, (1S,4R,6S,14S,18R)-1,3-Dihydro-isoindole-2-carboxylic acid 14-tert-butoxycarbonylamino-4-(4-methylphenylaminosulfonyl-aminocarbonyl)-2,15-dioxo-3,16-diaza-tricyclo[14.3.0.0^4,6]nonadec-7-en-18-yl ester] | < 100 | < 100 | – | – |
| CC(C)(C)OC(=O)N[C@H]1CCCCC/C=C\[C@@H]2C[C@@]2(C(=O)NS(=O)(=O)Nc2ccccc2)NC(=O)[C@@H]2C[C@@H](OC(=O)N3Cc4ccccc4C3)CN2C1=O [Compound 127, (1S,4R,6S,14S,18R)-1,3-Dihydro-isoindole-2-carboxylic acid 14-tert-butoxycarbonylamino-4-(phenylaminosulfonyl-aminocarbonyl)-2,15-dioxo-3,16-diaza-tricyclo[14.3.0.0^4,6]nonadec-7-en-18-yl ester] | < 100 | < 100 | – | – |
| CC(C)(C)OC(=O)N[C@H]1CCCCC/C=C\[C@@H]2C[C@@]2(C(=O)NS(=O)(=O)N2CCN(C(=O)OCC[Si](C)(C)C)CC2)NC(=O)[C@@H]2C[C@@H](OC(=O)N3Cc4ccccc4C3)CN2C1=O [Compound 119, (1S,4R,6S,14S,18R)-1,3-Dihydro-isoindole-2-carboxylic acid 14-tert-butoxycarbonylamino-4-(4-(2-trimethylsilylethoxycarbonyl)piperazine-1-sulfonyl-aminocarbonyl)-2,15-dioxo-3,16-diaza-tricyclo[14.3.0.0^4,6]nonadec-7-en-18-yl ester] | – | – | < 100 | < 100 |
| CC(C)(C)OC(=O)N[C@H]1CCCCC/C=C\[C@@H]2C[C@@]2(C(=O)NS(=O)(=O)N(CCC#N)C2CC2)NC(=O)[C@@H]2C[C@@H](OC(=O)N3Cc4ccccc4C3)CN2C1=O [Compound 125, (1S,4R,6S,14S,18R)-1,3-Dihydro-isoindole-2-carboxylic acid 14-tert-butoxycarbonylamino-4-(2-cyanoethyl(cyclopropyl)aminosulfonyl-aminocarbonyl)-2,15-dioxo-3,16-diaza-tricyclo[14.3.0.0^4,6]nonadec-7-en-18-yl ester] | < 100 | < 100 | – | – |
| CC(C)(C)OC(=O)N[C@H]1CCCCC/C=C\[C@@H]2C[C@@]2(C(=O)NS(=O)(=O)NC2CC2)NC(=O)[C@@H]2C[C@@H](OC(=O)N3Cc4ccc(Cl)cc4C3)CN2C1=O [Compound 114] | < 100 | < 100 | – | – |
